Measured values taken from patent US20100137267A1, “FORMULATIONS FOR TREATMENT OF ADIPOSE TISSUE, CUTANEOUS TISSUE AND DISORDERS, AND MUSCULAR TISSUE” (priority 2006, published 2010).
Entries after “also recorded” stand apart in the source; their conditions may differ.

Assays:
[1] = Octanol:Water; cited from earlier work
[2] = test system: cultured human adipocytes; assay: In vitro lipolysis assay (glycerol release) in cultured adipocytes; format: cell-based; settings: for lipolysis after 18 hour incubation: Salmeterol 10^−6 M or 10^−8 M, Budesonide 10^−6 M in combination; for increase in lipolysis: relative to negative control (0.1% DMSO), Isoproterenol 10^−6 M positive control
Method: In the in vitro lipolysis assay, glycerol was detected in cell culture media via a spectrophotometric measurement after chemical oxidation with hydrogen peroxide. Glycerol was measured over a three hour time period. Levels of lipolysis in cultured human adipocytes were tested after exposure to a beta adrenergic agonist alone, a glucocorticosteroid alone, or the combination of the two for one or more preincubation periods as described in more detail below.
Human subcutaneous adipocytes were used in the lipolysis assay. Adipose tissue was harvested from liposuction or lipectomy and pre-adipocytes were isolated as follows. Briefly, fat tissue was minced and incubated at 37° C. in Krebs-Ringer bicarbonate buffer containing 1% bovine serum albumin and 0.1% collagenase in an oxygen-rich shaking chamber (5% CO2; 75 strokes/min) for 1 hour. The suspension was filtered through a 400 μm nylon mesh and centrifuged for 1 min at 100 g. The pre-adipocytes in the supernatant were washed twice with and then plated in 96 well plates at a density of cells/well. The pre-adipocytes were cultured in maintenance medium for seven days as they differentiated into adipocytes.
At −21 hours before the lipolysis assay, medium was removed from each well and replaced with 75 μl of Maintenance Medium containing appropriate drug or DMSO (vehicle) concentrations (see Experimental Design section below). Each test drug or control treatment was applied to 8 wells/group (12 treatment groups per 96-well plate). At −3 hours prior to the lipolysis assay, each well was washed two times with Wash Buffer (200 μl/wash), filled with test or control solutions made up in Assay Buffer (75 μl/well), and then incubated for three hours, i.e., until measurement of glycerol content in the Assay Buffer. For some groups, a drug was only added for the three hour incubation period (see Experimental and Control Groups Below).
The glycerol content of the Assay Buffer from each well following the incubation was used as an index for lipolysis, where an increase in glycerol indicated lipolysis. Glycerol levels were assayed colorimetrically via a commercial glycerol assay kit (Randox Laboratory, United Kingdom) and quantified by comparison to a glycerol serial dilution standard curve (3 μM-200 μM). Glycerol concentrations for each well were normalized to cell density.
In each of the following control or experimental groups n=8 corresponding to the glycerol measurements for 8 wells from a 96-well cell culture plate.

[3] = compared with albuterol 5, a short acting hydrophilic beta adrenergic agonist; cited from earlier work

Compound: COc1ccc(C[C@@H](C)NC[C@H](O)c2ccc(O)c(NC=O)c2)cc1 (racemic) [Formoterol, ±N-[2-hydroxy-5-[1-hydroxy-2-[1-(4-methoxyphenyl)propan-2-ylamino]ethyl]phenyl]methanamide]
- Log P [1]: 2-4

Compound: OCc1cc(C(O)CNCCCCCCOCCCCc2ccccc2)ccc1O (racemic) [Salmeterol, ±2-(hydroxymethyl)-4-[1-hydroxy-2-[6-(4-phenylbutoxy)hexylamino]ethyl]-phenol]
- lipolysis after 18 hour incubation ([2]; Isoproterenol 10^−6 M): decreased lipolysis; also recorded: dose-dependent suppression of lipolysis
- lipophilicity relative to albuterol [3]: at least 10,000 times

Compound: CC(C)NCC(O)c1ccc(O)c(O)c1 (stereo not drawn) [Isoproterenol, isoproterenol]
- lipolysis after 18 hour incubation ([2]; Isoproterenol 10^−6 M): decreased lipolysis
- increase in lipolysis ([2]; three hour incubation): about 2.5 fold

Compound: budesonide
- lipolysis after 18 hour incubation ([2]; Isoproterenol 10^−6 M): slight suppression of lipolysis
- induction of lipolysis in cultured adipocytes (figure legend) ([2]; three hour incubation): dose-dependent induction of lipolysis
- lipolysis compared with Isoproterenol (positive control) ([2]; three hour incubation, Isoproterenol 10^−6 M, formoterol statement holds for concentrations of 10^−6 M and above): lower than that observed for Isoproterenol
- increase in lipolysis ([2]; three hour incubation): up to 1.5 fold
